According to the NIST ThermoML archive (doi:10.1021/je2010209):
Numbers after ± are expanded uncertainties.

What was measured:
[1] = 101 kPa, Liquid; for speed of sound: Sing-around technique in a fixed-path interferometer; for mass density: Vibrating tube method
[2] = xn = mol fraction of the nth substance listed; conditions: 101 kPa, Liquid, x1 = 1; for speed of sound: Sing-around technique in a fixed-path interferometer; for mass density: Vibrating tube method

SMILES	speed of sound ([1]; 288.15 K)	mass density ([1]; 288.15 K)	speed of sound ([1]; 293.15 K)	mass density ([1]; 293.15 K)	speed of sound ([1]; 298.15 K)	mass density ([1]; 298.15 K)	speed of sound ([1]; 303.15 K)	mass density ([1]; 303.15 K)	speed of sound ([1]; 308.15 K)	mass density ([1]; 308.15 K)	speed of sound ([1]; 313.15 K)	mass density ([1]; 313.15 K)	speed of sound ([1]; 318.15 K)	mass density ([1]; 318.15 K)	other results
COCCOCCOCCO [2-[2-(2-methoxyethoxy)ethoxy]ethanol]	1470 ± 5 m/s	1050.1 ± 2.1 kg/m3	1452 ± 5 m/s	1045.75 ± 2.1 kg/m3	1436 ± 5 m/s	1041.32 ± 2.1 kg/m3	1421 ± 5 m/s	1036.84 ± 2 kg/m3	1408 ± 5 m/s	1032.27 ± 2 kg/m3	1393 ± 5 m/s	1027.76 ± 2 kg/m3	1376 ± 5 m/s	1023.3 ± 2 kg/m3	
CCCCn1cc[n+](C)c1.F[B-](F)(F)F [1-butyl-3-methylimidazolium tetrafluoroborate] + COCCO															speed of sound ([2]; 288.15 K): 1589 ± 5 m/s; mass density ([2]; 288.15 K): 1206.51 ± 1.3 kg/m3; speed of sound ([2]; 293.15 K): 1577 ± 5 m/s; mass density ([2]; 293.15 K): 1202.95 ± 1.3 kg/m3; speed of sound ([2]; 298.15 K): 1565 ± 5 m/s; mass density ([2]; 298.15 K): 1199.39 ± 1.3 kg/m3; speed of sound ([2]; 303.15 K): 1554 ± 5 m/s; mass density ([2]; 303.15 K): 1195.82 ± 1.3 kg/m3; speed of sound ([2]; 308.15 K): 1542 ± 5 m/s; mass density ([2]; 308.15 K): 1192.27 ± 1.3 kg/m3; speed of sound ([2]; 313.15 K): 1531 ± 5 m/s; mass density ([2]; 313.15 K): 1188.72 ± 1.2 kg/m3; speed of sound ([2]; 318.15 K): 1520 ± 5 m/s; mass density ([2]; 318.15 K): 1185.17 ± 1.2 kg/m3
COCCOCCO [2-(2-methoxyethoxy)ethanol]	1451 ± 5 m/s	1024.6 ± 0.89 kg/m3	1434 ± 5 m/s	1020.2 ± 0.88 kg/m3	1416 ± 5 m/s	1015.79 ± 0.87 kg/m3	1399 ± 5 m/s	1011.36 ± 0.86 kg/m3	1382 ± 5 m/s	1006.92 ± 0.85 kg/m3	1366 ± 5 m/s	1002.47 ± 0.84 kg/m3	1349 ± 5 m/s	998.009 ± 0.83 kg/m3	
CCCCn1cc[n+](C)c1.F[B-](F)(F)F [1-butyl-3-methylimidazolium tetrafluoroborate]	1589 ± 5 m/s	1206.51 ± 1.3 kg/m3	1577 ± 5 m/s	1202.95 ± 1.3 kg/m3	1565 ± 5 m/s	1199.39 ± 1.3 kg/m3	1554 ± 5 m/s	1195.82 ± 1.3 kg/m3	1542 ± 5 m/s	1192.27 ± 1.3 kg/m3	1531 ± 5 m/s	1188.72 ± 1.2 kg/m3	1520 ± 5 m/s	1185.17 ± 1.2 kg/m3	
COCCO [2-methoxyethan-1-ol]	1380 ± 5 m/s	969.794 ± 1.8 kg/m3	1367 ± 5 m/s	965.063 ± 1.8 kg/m3	1351 ± 5 m/s	960.447 ± 1.8 kg/m3	1337 ± 5 m/s	955.825 ± 1.7 kg/m3	1321 ± 5 m/s	951.214 ± 1.7 kg/m3	1304 ± 5 m/s	946.562 ± 1.7 kg/m3	1287 ± 5 m/s	941.864 ± 1.7 kg/m3	
